Measurements reported in article PMC4229301, “A Polymeric Prodrug of 5-Fluorouracil-1-Acetic Acid Using a Multi-Hydroxyl Polyethylene Glycol Derivative as the Drug Carrier” (PLoS ONE, 2014).
One block for each molecule: values may come before it.

How the values were obtained:
[1] = In vivo distribution in H22 tumor-bearing mice; set-up: species or system Kunming mice
Description: The tumor-bearing animal model was established by subcutaneous injection of H22 cells (1×10^7 cells/ml, in 0.2 ml saline) into the right axillary region of Kunming mice. The sizes of tumors were monitored 7 days after inoculation and the tumor volumes were calculated as described in the “Antitumor activity in tumor-bearing mice” section. The mice with tumor volumes between 0.35 cm^3 and 0.65 cm^3 were randomized into two groups (n = 30). […] The mice were exsanguinated and sacrificed by neck dislocation at predetermined time points. Tissues including heart, liver, spleen, lung, kidney, brain and tumor were collected, washed with physiological saline, weighed and homogenized with two fold concentrated physiological saline. The samples of the test group were treated as hydrolyzed samples as described in the section “In vitro drug release”, whereas those of the control group were treated as unhydrolyzed samples. All data are presented as the concentration of 5-FA.
(§1) The data of pharmacokinetics and in vivo distribution study were processed using the Drug and Statistics Software 2.0 (DAS 2.0, Shanghai, China). The statistical analysis of the samples was performed by using one-way ANOVA and Student's t-test. p-values <0.05 were considered as statistically different.

[2] = Pharmacokinetics study after i.v. injection in rats; format: in vivo, Wistar rats
Description: Male Wistar rats were purchased from The laboratory Animal Center of Sichuan University. 12 Wistar rats (body weight: 200 g±20 g) were divided into two groups randomly (n = 6). […] The blood samples were collected into heparinized centrifuge tubes at predetermined intervals (see Table S2 in file SI) by retro-orbital puncture, and the plasma was separated by centrifugation. Each plasma sample of the test groups was divided into two portions. They were treated as hydrolyzed and unhydrolyzed as described in the “In vitro drug release” section. The two portions of the samples were analyzed by HPLC to determine the plasma concentrations of released 5-FA and total 5-FA of the conjugate whereas the plasma samples of the control group were treated as unhydrolyzed samples.
as §1

[3] = system: Kunming mice; experiment: Safety evaluation: myelosuppression (white blood cell and blood platelet counts) after intravenous administration; conditions: i.v., same doses, n=12
Description: All animals were fed on a light and dark cycle and allowed free access to standard chow and water. Temperature and relative humidity were kept at 25°C and 50%, respectively. After experiment, mice were sacrificed by neck dislocation, and all efforts were made to minimize suffering. […] The control group was given physiological saline (0.009 g/ml). Zero point one mL blood samples were collected at prearranged time intervals (one day before injection and 1, 4, 7, and 10 days post injection).

[4] = male, Wistar, rat, plasma, iv, 20 mg/kg
[5] = rats, i.v., 20 mg/kg 5-FA or 189 mg/kg 5-FA-PAE

- concentration in tumor over time ([1]; H22 tumor-bearing mice, i.v. 20 mg/kg 5-FA): undetectable after 6 h
- concentration at 15 min ([1]; Kunming, mouse, tumor, iv, 20 mg/kg): 4860 ± 1620 ng/g
- Kp at 4 h ([1]; Kunming, mouse, tumor/plasma, iv, 20 mg/kg, H22 tumor-bearing mice, i.v., 4 h after injection, read-out: ratio of tumor/plasma concentration): 1.99
- AUC(0-inf) [2, 4]: 21600 ± 4470 ng·h/mL
- AUC(0-t) [2, 4]: 21400 ± 4360 ng·h/mL
- Cmax [2, 4]: 74.9 ± 10.2 µg/mL
- Tmax [2, 4]: 1 min
- MRT last ([2]; male, Wistar, rat, plasma, iv, 20 mg/kg, read-out: MRT 0-t): 40.7 ± 8.52 min
- MRT inf ([2]; male, Wistar, rat, plasma, iv, 20 mg/kg, read-out: MRT 0-∞): 47.7 ± 14.4 min
- Vd ([2]; male, Wistar, rat, plasma, iv, 20 mg/kg, read-out: V (apparent volume of distribution)): 2.11 ± 0.62 L/kg
- half-life ([2]; male, Wistar, rat, plasma, iv, 20 mg/kg, read-out: t1/2 (elimination half life) (converted)): 92.3 ± 25.1 min
- concentration at 1 min ([2]; male, Wistar, rat, plasma, iv, rats, i.v. 20 mg/kg 5-FA, 1 min): 79.9 ± 10.2 µg/mL
- concentration at 5 min ([2]; male, Wistar, rat, plasma, iv, rats, i.v. 20 mg/kg 5-FA, 5 min): 79.9 ± 2.86 µg/mL
- concentration at 10 min ([2]; male, Wistar, rat, plasma, iv, rats, i.v. 20 mg/kg 5-FA, 10 min): 79.9 ± 3.52 µg/mL
- concentration at 15 min ([2]; male, Wistar, rat, plasma, iv, rats, i.v. 20 mg/kg 5-FA, 15 min): 79.9 ± 5.07 µg/mL
- concentration at 30 min ([2]; male, Wistar, rat, plasma, iv, rats, i.v. 20 mg/kg 5-FA, 30 min): 79.9 ± 2.8 µg/mL
- concentration at 1 h ([2]; male, Wistar, rat, plasma, iv, rats, i.v. 20 mg/kg 5-FA, 1 h): 79.9 ± 0.986 µg/mL
- concentration at 2 h ([2]; male, Wistar, rat, plasma, iv, rats, i.v. 20 mg/kg 5-FA, 2 h): 79.9 ± 0.814 µg/mL
- time of complete removal from the blood circulation after administration ([2]; rats, i.v.): 6∼8 h
- Plasma concentration, 5-FA ([2]; rats, i.v. 20 mg/kg 5-FA, 10 h): -
- Plasma concentration, 5-FA ([2]; rats, i.v. 20 mg/kg 5-FA, 24 h): -
- Cl (clearance) [2, 5]: 0.967 ± 0.259 mL/g/h
- VRT 0-t [2, 5]: 1.519±0.326 h^2
- VRT 0-∞ [2, 5]: 2.703±1.558 h^2
SMILES: O=C(O)Cn1cc(F)c(=O)[nH]c1=O [5-FA, 5-fluorouracil-1-acetic acid]
- number of blood platelets ([3]; 1 day after injection): 945 ± 139 ×10^9/L
- number of blood platelets ([3]; 4 days after injection): 781 ± 250 ×10^9/L
- number of white blood cells ([3]; 4 days after injection): 10.32±5.71 ×10^9/L
- number of blood platelets ([3]; 7 days after injection): 822 ± 198 ×10^9/L
- number of white blood cells ([3]; 7 days after injection): 10.24±4.50 ×10^9/L
- number of blood platelets ([3]; 10 days after injection): 860 ± 188 ×10^9/L
- number of white blood cells ([3]; 10 days after injection): 11.55±3.62 ×10^9/L

SMILES: O=c1[nH]cc(F)c(=O)[nH]1 [5-Fu, 5-fluorouracil]
- number of blood platelets ([3]; 1 day after injection): 792 ± 122 ×10^9/L
- number of blood platelets ([3]; 4 days after injection): 819 ± 211 ×10^9/L
- number of white blood cells ([3]; 4 days after injection): 6.84±5.76 ×10^9/L
- number of blood platelets ([3]; 7 days after injection): 858 ± 254 ×10^9/L
- number of white blood cells ([3]; 7 days after injection): 7.34±2.82 ×10^9/L
- number of blood platelets ([3]; 10 days after injection): 863 ± 382 ×10^9/L
- number of white blood cells ([3]; 10 days after injection): 8.59±2.39 ×10^9/L
